The source of these data is patent publication US20240166723A1, “MECHANOCHEMICAL GENERATION OF NOVEL COLLAGEN GEL ARCHITECTURES AND SCAFFOLDS” (Yale University, priority 2022, published 2024).

For assay [1], the system named is MDA-MB-231 cells. Put plainly: Morphology of MDA-MB-231 cells under drug treatment in normal versus thick collagen. Format: cell-based, human. The note with it: for cell shape and protrusions / cell morphology versus control: normal and thick collagen; for cell shape and protrusions / F-actin accumulation on the cell periphery: day2; for cell morphology versus control: Y27632 30 μM, CK666 50 μM, SMIFH2 50 μM; for effect on cell morphology: normal collagen. As for the experimental part:
(§1) To investigate the specific molecular mechanism behind the elevated migration of MDA-MB-231 cells in thick collagen, the following drugs were tested in these gels: pan-MMP inhibitor GM6001 (20 μM), potent selective Cdc42 inhibitor ML141 (10 μM), ROCK inhibitor Y27632 (30 μM), ARP2/3 inhibitor CK666 (50 μM), formin inhibitor SMIFH2 (50 μM) and Rac1 inhibitors NSC23766 (100 μM) and EHT1864 (20 μM). First cell morphology was traced and quantified. […] The graphic illustration of each morphological index can be found in FIG. 12B.
(§2) Drugs were reconstituted and stored following manufacturers' recommendations and diluted in culture media to working concentrations. Specifically, 20 μM pan-MMPs inhibitor GM6001(Abcam, ab120845), 30 μM ROCK inhibitor Y27632 (Abcam, ab144494), 10 μM Cdc42 inhibitor ML141 (Calbiochem®217708), 50 μM formin inhibitor SMIFH2 (Abcam, ab218296), 50 μM ARP2/3 inhibitor CK666 (Abcam, ab141231), 100 μM Rac1 inhibitor NSC23766, 20 μM Rac1 inhibitor EHT1864 (Cayman 17258) were used. Fresh media mixed with specific drug were prepared right before experiment and replaced daily. In the drug assays, at least two independent experiments were performed with at least two replicates (technical duplicates) in each experiment.
In this equation, N is the total step number, n is the n-th step, x,y are the x,y coordinates respectively. For morphology analysis, z projected tilescan images were segmented and analyzed by in-house MATLAB codes. Segmentation performance was validated, with wrong segmentation manually corrected or removed. For difficult automatic segmentation data such as the Y27632 treated condition, manually tracked data were supplemented. The definitions of elongation, compactness, sphericity and shape variance were described in FIG. 4B (Liu, Scientific Reports 2022, 12, 791). A custom ImageJ script was used to derive the colocalization of the YAP/TAZ signal in the nucleus and cytoplasm. Specifically, the central plane of each cell is first extracted. DAPI and YAP/TAZ channels are then used to produce masks for cell nucleus and cell body respectively. Nucleus YAP/TAZ is calculated by averaging YAP/TAZ intensity within the nucleus mask and cytoplasmic YAP/TAZ is calculated by averaging YAP/TAZ intensity outside the nucleus mask but within cell body. To note, only YAP/TAZ of focal plane is used for average calculation. For thick collagen bundle size measurement, “Analyze Particle” function from Fiji was used.

In assay [2] the test system is PDGF-induced lamellipodia formation. The note with it: cited from earlier work.
In assay [3] the test system is MDA-MB-231 cells. Briefly: Migration inhibition drug assay: MDA-MB-231 cell migration in 3D collagen. Format: cell-based, human. Particulars: thick collagen, day0 and day1; GM6001 20 μM, Y27632 30 μM, ML141 10 μM, SMIFH2 50 μM, NSC23766 100 μM. How it is done: as §1
Apart from morphology signatures, cell migration was also tracked (FIG. 5A-C, FIG. 13A-B and FIG. 18A). […] GM6001-treated MDA-MB-231 cells in thick collagen migrated as actively as the DMSO control, both increased compared to cells in normal collagen. […] However, the interpretation of NSC23766 was confounded by the poor performance of another […]. NSC23766 binds directly to Rac1 and blocks the interaction between GEF Trio or Tiam (Gao et al., Proceedings Of The National Academy Of Sciences Of The United States Of America, 2004, 101, 7618-7623). EHT1864 binds to Rac1 but it is an allosteric inhibitor for guanine association. […] The differential preference between MDA-MB-231 cells for a stiff substrate and metastatic ovarian cancer cells (MOCC) for compliant substrate for migration (McGrail et al., Journal of Cell Science 2014, 127, 2621-2626); McGrail et al., Physical Biology 2015, 12, 026001) may be dictated by Rac1 and […], respectively.
as §2
Imaging was performed using a Leica SP8 confocal microscope. Time-lapse imaging (XYZT mode) was taken with a 20× objective (0.75 NA), with time interval set to 3 minutes or 6 minutes and z-step size set to 2 μm. Day0 time-lapse imaging was acquired between around 0hr to 12 hrs post embedding cells into gels. Day1 time-lapse imaging was acquired between around 24 hrs to 36 hrs post gel-embedment. Overview tilescan images were taken at day1, day2 or day5 respectively.
To track cell migration, XYZT data were first reduced in dimensions by conducting standard deviation projection along the z-axis. The XYT data were then processed by TrackMate in Fiji and produced cell trajectories. Trajectories were exported to MATLAB to calculate average speed and mean squared displacement. Average speed specifically refers to the mean of the absolute value of the net displacement of the cell center per hour. Mean squared displacements were computed with the following equation (Gorelik, Nature Protocols 2014, 9, 1931-1943): […]

Assay [4] has as its system human pancreatic cancer cells PANC-1. Particulars: aligned matrix fiber; cited from earlier work.
Assay [5] has as its system SKOV3ip. The note with it: 2D conditions; cited from earlier work.
Assay [6] deals with OVCA429. Particulars: 2D conditions; cited from earlier work.
In assay [7] the test system is D1 murine mesenchymal stem cells (MSCs). Briefly: MSC migration in collagen gels, time-lapse confocal cell tracking. Particulars: MSCs treated with inhibitors of myosin-based contractility, day 6. How it is done: To determine how island architecture modulates stem cell behavior, DI MSC's were seeded in gels that were adherent to polydopamine covered glass (FIG. 37). Polydopamine allows for collagen to remain anchored to surfaces for imaging and prevents total compaction of the gel during experiments (Park et al., ACS Applied Materials & Interfaces 2019, 11, 23919-23925). MSC migration in gels were then visualized. To capture cell migration in these gels, a stable LifeAct-RFP dye was transduced into MSCs and then these encapsulated cells were imaged with time-lapse confocal fluorescence microscopy. Cell tracking analysis was performed to determine migration metrics (FIG. 22A). The cells both 1 day after seeding and 6 days after seeding were imaged for 12 hour timelapses. […] After 6 days of culture, differences in migratory behavior were observed between MSCs cultured in different island gels (FIG. 22B).
D1 MSCs or D1 MSC-LifeActRFP cells were mixed with the collagen solution prior to gelation to achieve a final cell concentration of 15000 cells/ml. Cells were cultured in 50%/50% mixture of the osteogenic induction medium and adipogenic induction medium (differentiation medium). The differentiation medium contained 50 μg/ml L-ascorbic acid (MilliporeSigma), 10 mM β-glycerophosphate (MilliporeSigma), and 0.1 μM dexamethasone (MilliporeSigma) in the DMEM growth medium.
MSC time lapses were performed in 12 well glass bottom dishes which had been polydopamine coated. 12 hour time lapses were taken on Day 1 and Day 6. Automatic cell segmentation was obtained using Imaris (Oxford Instruments). Manual filtering was done to determine which cells were to be used for downstream analysis. From these segmentations, cell movement was tracked and metrics such as mean speed, sphericity, and migration track length over the timelapse were obtained. Mean speed is defined as the average of instantaneous speeds between timepoints.

Assay [8] has as its system chronic lymphocytic leukemia cells. Particulars: cited from earlier work.

Take `Cc1[nH]c2ccccc2c1CCNC(=O)c1ccccc1F` [CK666]: the “cell shape and protrusions” value in assay [1] was “elongated and stretched”. Besides, in assay [1] (NSC23766 100 μM), the “cell morphology versus control” value is reported as “distinct morphologies compared with control”.
As to `O=c1cc(CN2CCOCC2)occ1OCCCCCSc1ccnc2cc(C(F)(F)F)ccc12` [EHT1864], the “effect on cell morphology” value in assay [1] is given as “all cells are round”. The PDGF-induced lamellipodia formation entry in assay [2] is listed as “can inhibit PDGF-induced lamellipodia formation”.
Turning to `CNC(=O)[C@H](Cc1c[nH]c2ccccc12)NC(=O)[C@@H](CC(=O)NO)CC(C)C` [GM6001], the “effect on cell morphology” value in assay [1] is reported as “all cells are round”. For the same compound, in assay [3], the MDA-MB-231 cell migration entry was “failed to inhibit MDA-MB-231 cell migration”.
`COc1ccc(C2CC(c3ccccc3)=NN2c2ccc(S(N)(=O)=O)cc2)cc1` (centres unmarked) [ML141]: the cell movement entry in assay [4] is reported as “moved faster in aligned matrix fiber regardless of ML141 treatment”. Further, the inhibition of migration entry in assay [5] and in assay [6] was “does inhibit” throughout. The “effect on cell morphology” value in assay [1] is “all cells are round”. The MDA-MB-231 cell migration entry in assay [3] was “did not show significant inhibition”.
Turning to `O=S(=O)(c1cccc2c(I)cccc12)N1CCCNCC1` [ML-7], the “cell migration track length” value in assay [7] is “decreases in cell migration track length”.
For `CCN(CC)CCCC(C)Nc1nc(C)cc(Nc2ccc3nc(C)cc(N)c3c2)n1` (centres unmarked) [NSC23766], the cell movement result in assay [4] is “inhibited cell movement, regardless of collagen fiber orientation”. Further, in assay [1] (NSC23766 100 μM), the cell size result is listed as “smaller than most other drug conditions” and the “cell morphology versus control” value is on record as “distinct morphologies compared with control”. In assay [1], the “F-actin accumulation on the cell periphery” value is listed as “clearly visible” and the “effect on cell morphology” value was “all cells are round”. In assay [8], the proliferation entry was “proliferation arrest”. In addition, in assay [7], the “cell migration track length” value is listed as “decreases in cell migration track length”. In addition, the MDA-MB-231 cell migration result in assay [3] is on record as “significantly reduced MDA-MB-231 cell migration”.
As to `O=C1NC(=S)N(c2cccc(Br)c2)C(=O)/C1=C/c1ccco1` [SMIFH2], in assay [1], the “F-actin accumulation on the cell periphery” value is given as “lacked F-actin accumulation on the cell periphery”; the “cell shape and protrusions” value was “round and lacked cell peripheral fluctuations”; the “effect on cell morphology” value is given as “all cells are round”. In assay [1] (NSC23766 100 μM), the “cell morphology versus control” value is “distinct morphologies compared with control”. Also, in assay [3], the MDA-MB-231 cell migration entry was “significantly reduced MDA-MB-231 cell migration”.
As for `C[C@@H](N)[C@H]1CC[C@H](C(=O)Nc2ccncc2)CC1` [Y27632], the “cell shape and protrusions” value in assay [1] is listed as “extremely long cell protrusions”. In addition, in assay [1] (NSC23766 100 μM), the “cell morphology versus control” value is given as “distinct morphologies compared with control”. Besides, in assay [7], the “cell migration track length” value is “decreases in cell migration track length”. In assay [3], the MDA-MB-231 cell migration result was “significantly reduced MDA-MB-231 cell migration”.
